US10597388B2, “Pyridazinone herbicides” (FMC CORPORATION, priority 2014, dated 2020)

How the values were obtained:
Format in all cases: in vivo
[1] = system: barnyardgrass (Echinochloa crus-galli); assay: Test B flooded paddy test; conditions: 250 g ai/ha, Flood; visual rating on scale of 0 to 100 where 0 is no effect and 100 is complete control; 13 to 15 d after treatment
Summary of the method: (§1)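 Plants at the 2-leaf stage were flooded to 3 cm above soil, and test compounds were applied directly into the paddy water, which was held at that depth throughout. After 13 to 15 d in a greenhouse, injury was rated visually against untreated controls on a 0–100 scale (0 no effect, 100 complete control).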

[2] = system: ducksalad (Heteranthera limosa); assay: Test B flooded paddy test; conditions: 250 g ai/ha, Flood; visual rating on scale of 0 to 100 where 0 is no effect and 100 is complete control; 13 to 15 d after treatment
Summary of the method: as §1

rice (Oryza sativa) = assay: Test B flooded paddy test; conditions: 250 g ai/ha, Flood; visual rating on scale of 0 to 100 where 0 is no effect and 100 is complete control; 13 to 15 d after treatment
Summary of the method: as §1

[3] = system: sedge, umbrella (small-flower umbrella sedge, Cyperus difformis); assay: Test B flooded paddy test; conditions: 250 g ai/ha, Flood; visual rating on scale of 0 to 100 where 0 is no effect and 100 is complete control; 13 to 15 d after treatment
Summary of the method: as §1

[4] = system: barnyardgrass (Echinochloa crus-galli); assay: Test A greenhouse herbicide test, pre- and postemergence
Summary of the method: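 Seeds sown in loam–sand blend got a preemergence directed soil spray of compound in non-phytotoxic solvent with surfactant. Postemergence treatment was given at 2–10 cm, one- to two-leaf stage. After ~10 d in greenhouse, injury was rated visually vs untreated controls, 0 (no effect) to 100 (complete control).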

[5] = system: chickweed (common chickweed, Stellaria media); assay: Test C greenhouse herbicide test, postemergence
Summary of the method: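 Seedlings are raised in pots of peat moss–vermiculite medium with starter nutrients, then receive postemergence test chemical at the 1- to 4-leaf stage. They are kept in the greenhouse 13 to 15 d and scored visually versus controls, 0 meaning no effect and 100 complete control.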

[6] = system: blackgrass (Alopecurus myosuroides); assay: Test A greenhouse herbicide test, postemergence; conditions: for Plant response rating, Blackgrass: 125 g ai/ha; for Blackgrass plant response rating: 500 g ai/ha, 0 to 100 scale, 0 is no effect, 100 is complete control
Summary of the method: (§2)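 Greenhouse postemergence test: formulated chemicals sprayed on one- to two-leaf plants (2 to 10 cm), grown in loam soil blended with sand. Injury assessed visually about 10 d later against untreated controls, scored 0 (no effect) to 100 (complete control).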

[7] = system: galium (catchweed bedstraw, Galium aparine); assay: Test A greenhouse herbicide test, postemergence; conditions: for Plant response rating, Galium: 125 g ai/ha; for Galium plant response rating: 500 g ai/ha, 0 to 100 scale, 0 is no effect, 100 is complete control
Summary of the method: as §2

[8] = Postemergence, 125 g ai/ha, visual rating after approx. 10 d, 0 to 100 scale (0 no effect, 100 complete control)
[9] = Postemergence, 500 g ai/ha, 0 to 100 scale, 0 is no effect, 100 is complete control
[10] = Preemergence, 125 g ai/ha, 0 to 100 scale where 0 is no effect and 100 is complete control
[11] = Preemergence, 500 g ai/ha, 0 to 100 scale, 0 no effect, 100 complete control
[12] = Postemergence, 31 g ai/ha, 0 to 100 scale (0 no effect, 100 complete control)
[13] = Postemergence, 125 g ai/ha, scale 0 to 100, 0 is no effect, 100 is complete control
[14] = Postemergence, 250 g ai/ha, scale 0 to 100, 0 no effect, 100 complete control, 13 to 15 d
[15] = postemergence, 62 g ai/ha, scale 0 to 100, 0 no effect, 100 complete control
[16] = visual rating after approx. 10 d, 0 to 100 scale (0 no effect, 100 complete control)
[17] = Postemergence, 125 g ai/ha, 0 to 100 scale where 0 is no effect and 100 is complete control
[18] = 0 to 100 scale where 0 is no effect and 100 is complete control

Row | SMILES | Plant response rating, Barnyardgrass [1] | Plant response rating, Ducksalad [2] | Plant response rating, Rice (rice (Oryza sativa)) | Plant response rating, Sedge, Umbrella [3] | Plant response rating, Barnyardgrass [4, 8] | Barnyardgrass plant response rating [4, 9] | Barnyardgrass plant response rating [4, 10] | Plant response rating, Barnyardgrass [4, 11] | Chickweed plant response rating [5, 12] | Plant response rating, Chickweed [5, 13] | Plant response rating, Chickweed [5, 14] | Chickweed plant response rating [5, 15] | Plant response rating, Blackgrass [6, 16] | Blackgrass plant response rating [6] | Plant response rating, Galium [7, 16] | Galium plant response rating [7] | Plant response rating, Barnyardgrass [4, 17] | Plant response rating, Blackgrass [6, 18] | Plant response rating, Galium [7, 18]
1 | CC(=O)Oc1c(C)nn(C)c(=O)c1-c1c(C)sc2ccc(C)cc12 [Compound 25] | 30 | 20 | 0 | 60 | 20 | 90 | 30 | 90 | 90 | 100 | 100 | 98 | 60 | 90 | 100 | 100 |  |  | 
2 | CC(=O)Oc1c(C)nn(C)c(=O)c1-c1c(C)sc2c(C)cc(C)cc12 [Compound 27] | 30 | 30 | 40 | 80 | 90 | 90 | 90 | 100 | 95 | 100 | 100 | 100 | 90 | 90 | 100 | 100 |  |  | 
3 | CCC(=O)Oc1c(C)nn(C)c(=O)c1-c1c(C)sc2c(C)cc(C)cc12 [Compound 28] | 60 | 80 | 40 | 95 | 80 | 90 | 90 | 90 | 95 | 98 | 95 | 95 | 90 | 90 | 100 | 100 |  |  | 
4 | COc1nn(C)c(=O)c(-c2c(C)sc3ccccc23)c1O [Compound 33] | 0 | 0 | 0 | 0 | 40 | 90 | 20 | 90 | 85 | 90 | 95 | 90 | 10 | 40 | 90 | 100 |  |  | 
5 | COc1nn(C)c(=O)c(-c2c(C)ccc3ccccc23)c1OC(=O)OC(C)C [Compound 36] | 0 | 30 | 20 | 70 | 50 | 80 | 0 | 30 | 80 | 95 | 95 | 95 | 60 | 80 | 100 | 100 |  |  | 
6 | CCC(=O)Oc1c(C)nn(C)c(=O)c1-c1c(C)sc2ccc(C)cc12 [Compound 42] | 0 | 0 | 0 | 0 |  | 90 | 80 | 100 | 90 | 100 | 100 | 100 |  | 90 |  | 100 | 30 | 80 | 100
7 | Cc1cc(C)c2ccccc2c1-c1c(O)cnn(C)c1=O [Compound 51] | 0 | 0 | 0 | 0 |  | 80 | 30 | 90 | 50 | 70 | 90 | 55 |  | 60 |  | 100 | 20 | 30 | 90
8 | COc1nn(C)c(=O)c(-c2c(C)ccc3ccccc23)c1O [Compound 54] | 0 | 0 | 0 | 0 |  | 90 | 40 | 90 | 95 | 95 | 100 | 95 |  | 40 |  | 100 | 30 | 20 | 100
